According to patent US10654866B2, “Selective estrogen receptor degraders” (Eli Lilly and Company, priority 2018, dated 2020):
Like-named read-outs stand apart in the source and are kept apart here.

Legend:
ERα = ERα (Homo sapiens (Human), UniProt P03372); test: PRα induction assay in MCF7 cells; type: cell-based; settings: MCF7 breast cancer cells
Method: The purpose of the following PRα induction assay is to determine whether a test compound has agonistic activity against ERα receptor (an agonist would be expected to activate the receptor).
Culture MCF7 (purchased from ATCC HTB-22) in DMEM media supplemented with 10% FBS, 0.01 mg/mL human insulin 1 and 1% penicillin/streptomycin antibiotics and plate the cells (prior to becoming 70% confluent) in 384-well flat-bottom plates at a density of 4,000 cells per well in 20 μL volume in DMEM phenol red free media containing 10% FBS (charcoal stripped). Incubate the cells overnight in a cell culture incubator (5% CO2, 95% relative humidity at 37° C.) and allow the cells to attach to the plate. The following day, dose the cells with test compound. Use an Echo 555 acoustic dispenser to prepare compound serial dilutions (1:3) in a range from 6 μM to 0.0003 μM. Dose the cells with the addition of the test compound (5 μL) from the serial dilution plate to the cell plate producing a final DMSO concentration of 0.2% with a final concentration of the test compound dose range between 2 and 0.0001 μM. For the maximum point use media containing 0.2% of DMSO and for the minimum point, use fulvestrant diluted at 2 μM final concentrations in the growth media containing 0.2% DMSO. After dosing with the test compound, incubate the cell plates at 37° C. and 5% CO2 for 24 hours. Fix the cells by adding 14% para-formaldehyde (10 μL) for 30 minutes at room temperature. Wash cells once with PBS (20 μL) and incubate with PBS (20 μL) containing 0.5% (v/v) TWEEN® 20 for 1 hour. Wash cells twice with PBS (20 μL) containing 0.05% TWEEN® 20 and block with 3% BSA in PBS containing 0.05% TWEEN® 20 and 0.1% TRITON™ X-100 (20 μL/well) for 1 hour at room temperature. […]
The following day, wash cells with PBS 0.05% TWEEN® 20 (2×20 μL) and incubate with secondary antibody (20 μL/well) (1:1000 dilution, Goat anti-rabbit IgM ALEXA FLUOR™ 488) in PBS 1% BSA for 105 minutes at room temperature. […] Scan plates with ACUMEN EXPLORER™ [Laser-scanning fluorescence microplate cytometer manufactured by TTP LABTECH LTD] to measure PRα. […]

MCF7 ESR1 wild type = test: Cell proliferation assay in MCF7; type: cell-based, human; settings: seven days, read-out: Relative IC50 (μM) MCF7 ESR1 wild type
Method: (§1) Seed MCF7 (purchased from ATCC HTB-22) cells at a density of 2,000 cells per well in DMEM phenol red free media 10% FBS (20 μL volume) (charcoal stripped) into a clear bottom 384-well cell culture plate. Plate MCF7-ESRY537N-682 (generated by CRISPR/Cas9 gene editing of ESr1 gene in MCF7 cells, clone #682) in DMEM media supplemented with 10% FBS, and 1% penicillin/streptomycin antibiotics at a density of 1000 cells per well. Incubate the plates at 37° C. and 5% CO2. The following day dose the cells with the test compound. Use an Echo 555 acoustic dispenser to prepare test compound serial dilutions (1:3) in a range from 60 μM to 0.003 μM. Dose the cells with the addition of 5 μL from the serial dilution plate to the cell plate, producing a final DMSO concentration of 0.2% with a final test compound concentration dose range between 20 and 0.001 μM. For the maximum point use media containing 0.2% of DMSO and for the minimum point use fulvestrant diluted at 2 μM final concentrations in the growth media containing 0.2% DMSO. After dosing with the test compound, incubate the cell plates at 37° C. and 5% CO2. Seven days after test compound addition, remove the plates from the incubator and add cold EtOH 96% (65 μL) to each well. […] Seal the plates and incubate 1 hour at room temperature on the bench (preserved from light). Scan the plates with ACUMEN EXPLORER™ [Laser-scanning fluorescence microplate cytometer manufactured by TTP LABTECH LTD].

[1] = system: MCF7 ESR1 Y537N mutant cells; test: Cell proliferation assay in MCF7-ESR1 Y537N-682; type: cell-based, human; settings: seven days, read-out: Relative IC50 (μM) MCF7 ESR1 Y537N mutant cells
Method: as §1

[2] = system: MCF7 ER-positive breast cancer model; test: In vivo combination studies in MCF7 ER-positive breast cancer xenograft model; design: species or system mice; settings: Example 10 15 mpk; for Difference (Treatment 1 − Treatment 2): Treatment 1 = Vehicle, log10 tumor volume, QD × 42, PO
Excerpt: Otherwise, the statistical conclusion is additive.

ERα, sequence (P03372 whole entry): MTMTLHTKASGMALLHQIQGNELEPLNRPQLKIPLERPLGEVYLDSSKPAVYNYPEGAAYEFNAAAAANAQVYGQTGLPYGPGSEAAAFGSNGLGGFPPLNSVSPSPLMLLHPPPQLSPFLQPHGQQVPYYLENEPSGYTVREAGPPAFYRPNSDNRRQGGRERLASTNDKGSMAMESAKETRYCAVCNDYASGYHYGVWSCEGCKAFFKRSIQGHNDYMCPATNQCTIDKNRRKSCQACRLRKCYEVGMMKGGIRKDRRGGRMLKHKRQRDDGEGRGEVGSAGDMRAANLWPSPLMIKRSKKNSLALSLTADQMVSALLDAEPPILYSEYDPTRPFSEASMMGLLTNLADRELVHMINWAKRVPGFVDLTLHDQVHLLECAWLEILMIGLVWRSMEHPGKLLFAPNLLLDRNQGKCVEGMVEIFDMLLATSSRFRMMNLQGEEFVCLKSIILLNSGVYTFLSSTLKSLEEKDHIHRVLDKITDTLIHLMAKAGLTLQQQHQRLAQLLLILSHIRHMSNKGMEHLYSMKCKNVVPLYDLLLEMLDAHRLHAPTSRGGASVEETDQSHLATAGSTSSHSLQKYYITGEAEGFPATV

| agonistic activity (ERα) | IC50 (MCF7 ESR1 wild type; Homo sapiens, MCF7, […]) | IC50 ([1]; Homo sapiens, MCF7, […]) | IC50 [1] | IC50 (MCF7 ESR1 wild type) | Compound | Delta T/C % or % Regression ([2]; Abemaciclib 50 mpk, QD × 42, PO (Table 20)) | Delta T/C % or % Regression ([2]; Everolimus 5 mpk, QD × 42, PO (Table 24)) | Delta T/C % or % Regression ([2]; alpelisib 15 mpk (d1-d7), 10 mpk (d8-42), QD × 42, PO (Table 22)) | Difference (Treatment 1 − Treatment 2) ([2]; Abemaciclib 50 mpk) | Difference (Treatment 1 − Treatment 2) ([2]; Everolimus 5 mpk) | Difference (Treatment 1 − Treatment 2) ([2]; alpelisib 15 mpk (d1-d7), 10 mpk (d8-42)) |
| --- | --- | --- | --- | --- | --- | --- | --- | --- | --- | --- | --- |
| no significant agonistic activity | 0.00768 ± 0.0126 µM | 0.0321 ± 0.0068 µM |  |  | Oc1ccc2c3c(cnc2c1)-c1ccc(C(F)(F)F)cc1OC3c1ccc(OCCN2CC(CF)C2)cc1 (racemic) [Example 1, 5-(4-{2-[3-(Fluoromethyl)azetidin-1-yl]ethoxy}phenyl)-8-(trifluoromethyl)-5H-[1]benzopyrano[4,3-c]quinolin-2-ol] |  |  |  |  |  |  |
| no significant agonistic activity |  |  | 1.86 ± 1.03 µM |  | Oc1ccc2c3c(cnc2c1)-c1ccc(C(F)(F)F)cc1OC3c1ccc(OCCN2CC(CF)C2)cc1 (single isomer, unassigned) [Example 1A, 5-(4-{2-[3-(Fluoromethyl)azetidin-1-yl]ethoxy}phenyl)-8-(trifluoromethyl)-5H-[1]benzopyrano[4,3-c]quinolin-2-ol] |  |  |  |  |  |  |
|  |  |  | 0.0106 µM | 0.00438 µM | Cc1ccc(S(=O)(=O)O)cc1.Oc1ccc2c3c(cnc2c1)-c1ccc(C(F)(F)F)cc1OC3c1ccc(OCCN2CC(CF)C2)cc1 (single isomer, unassigned; isomer 2) [Example 10, 5-(4-{2-[3-(Fluoromethyl)azetidin-1-yl]ethoxy}phenyl)-8-(trifluoromethyl)-5H-[1]benzopyrano[4,3-c]quinolin-2-ol, 4-methylbenzenesulfonic acid, Isomer 2] | −51% | −51% | −51% | 0.659 | 0.445 | 0.241 |
